81 compounds from ChEMBL document CHEMBL1142541, “3D-QSAR studies of heterocyclic quinones with inhibitory activity on vascular smooth muscle cell proliferation using pharmacophore-based alignment” (Bioorg Med Chem, 2008) can be followed below.

One may read the IC50 as the concentration that gives 50% inhibition. Low readings indicate greater potency in that assay, high ones weaker potency in that assay. For orientation: pIC50 means the negative decadic logarithm of the IC50, by convention in mol/L.

The nature of the test: Inhibition of PDGF-induced proliferation in RAOSMC. On the set-up: species or system Rattus norvegicus.
Compound `O=C1C(Cl)=C(Nc2ccccc2)C(=O)c2[nH]cnc21` came in with an IC50 of 5.5 µM and a pIC50 of 5.26. As for `O=C1C(Cl)=C(Nc2cccc(Br)c2)C(=O)c2[nH]cnc21`, the IC50 was 1.6 µM.

For the compound `O=C1C(Br)=C(Nc2ccc(F)cc2)C(=O)c2[nH]cnc21`, it took 1 µM to reach half-maximal inhibition (IC50) and the pIC50 is on record as 6.

`O=C1C(Br)=C(Nc2cccc(I)c2)C(=O)c2[nH]cnc21` gave an IC50 of 2.5 µM. Turning to `Cc1nc2c([nH]1)C(=O)/C(=N/c1ccc(F)c(F)c1F)C(Cl)=C2O`, the midpoint of inhibition, the IC50, lay at 0.8 µM. In turn, `Cc1nc2c([nH]1)C(=O)/C(=N/c1ccccc1)C(Cl)=C2O` came in with an IC50 of 0.8 µM. Regarding `Cc1ccc(NC2=C(Br)C(=O)c3nc[nH]c3C2=O)cc1`, the 50% inhibitory concentration (IC50) came out at 1 µM. `Cc1nc2c([nH]1)C(=O)/C(=N/c1cccc(Br)c1)C(Cl)=C2O` came in with an IC50 of 1 µM. Compound `Cc1nc2c([nH]1)C(=O)/C(=N/c1ccc(F)cc1)C(Cl)=C2O` had an IC50 of 3 µM. Same read-out and setting: under `O=C1C(Cl)=C(Nc2ccccc2)C(=O)c2[nH]c(C(F)(F)F)nc21` stands 50 µM. In the case of `Cc1nc2c([nH]1)C(=O)/C(=N/c1cccc(Cl)c1)C(Cl)=C2O`, the IC50 is 0.9 µM. For the compound `O=C1C(Cl)=C(Nc2cccc(Cl)c2)C(=O)c2[nH]cnc21`, the IC50 was found to be 1.4 µM. As to `O=C1C(Cl)=C(Nc2cccc(I)c2)C(=O)c2[nH]cnc21`, half-maximal inhibition (IC50) required 1.3 µM. The same measure, in the same setting: under `O=C1C(Br)=C(Nc2ccc(Cl)cc2)C(=O)c2[nH]cnc21` stands 4 µM; under `O=C1C(Br)=C(Nc2ccccc2)C(=O)c2[nH]cnc21`, 1.1 µM. On the same count and under the same terms, to `O=C1C(Cl)=C(Nc2ccc(I)cc2)C(=O)c2[nH]c(C(F)(F)F)nc21` belongs 25 µM.

In turn, `O=C1C(Cl)=C(Nc2ccc(Cl)cc2)C(=O)c2[nH]c(C(F)(F)F)nc21` had an IC50 of 15 µM and a pIC50 of 4.82.

Regarding `Cc1ccc(NC2=C(Cl)C(=O)c3nc(C(F)(F)F)[nH]c3C2=O)cc1`, 40 µM corresponded to half-maximal inhibition (IC50). For `O=C1C(Cl)=C(Nc2ccc(I)cc2)C(=O)c2[nH]cnc21`, the midpoint of inhibition, the IC50, lay at 1.3 µM and the pIC50 is recorded as 5.89. As for `O=C1C(Cl)=C(Nc2ccc(F)cc2)C(=O)c2[nH]c(C(F)(F)F)nc21`, half-maximal inhibition (IC50) required 12 µM. On the same count and under the same terms, to `Cc1nc2c([nH]1)C(=O)/C(=N/c1ccc(I)cc1)C(Cl)=C2O` belongs 1 µM; to `O=C1C(Cl)=C(Nc2ccc(F)cc2)C(=O)c2[nH]cnc21`, 1.2 µM.

Take `O=C1C(Cl)=C(Nc2ccc(OC(F)(F)F)cc2)C(=O)c2[nH]c(-c3ccccn3)nc21`: the IC50 turned out to be 6 µM. This IC50 is about 5-fold higher than that of the compound before. `O=C1C(Cl)=C(Nc2ccc(F)cc2)C(=O)c2[nH]c(-c3ccncc3)nc21` returned a half-maximal inhibitory concentration (IC50) of 50 µM. Same read-out and setting: under `O=C1C=C(Nc2ccc(Br)cc2)C(=O)c2[nH]c(-c3ccccn3)nc21` stands 12 µM. Same read-out and setting: to `O=C1C=C(Nc2ccc(Cl)cc2)C(=O)c2[nH]c(-c3ccccn3)nc21` belongs 13 µM; to `O=C1C=C(Nc2ccc(I)cc2)C(=O)c2[nH]c(-c3ccccn3)nc21`, 20 µM; to `Cc1nc2c([nH]1)C(=O)/C(=N/c1ccc(F)cc1F)C(Cl)=C2O`, 1.2 µM.

As to `Cc1ccc(NC2=C(Cl)C(=O)c3nc[nH]c3C2=O)cc1`, the IC50 is 1.4 µM. In turn, `O=C1C(Cl)=C(Nc2ccc(C(F)(F)F)cc2)C(=O)c2[nH]cnc21` yielded an IC50 of 2.5 µM and a pIC50 of 5.6. `O=C1C(Cl)=C(Nc2ccc(C(F)(F)F)cc2)C(=O)c2[nH]c(C(F)(F)F)nc21` registered an IC50 of 20 µM. `Cc1ccc(NC2=C(Cl)C(=O)c3nc(C)[nH]c3C2=O)cc1` registered an IC50 of 0.8 µM. Regarding `Cc1nc2c([nH]1)C(=O)/C(=N/c1ccc(Cl)cc1)C(Cl)=C2O`, the midpoint of inhibition, the IC50, lay at 2.8 µM and the pIC50 is on record as 5.55. `COc1ccc(NC2=C(Cl)C(=O)c3nc(-c4ccncc4)[nH]c3C2=O)cc1`: the IC50 worked out at 50 µM and the pIC50 is 4.3. `O=C1C(Cl)=C(Nc2ccc(F)cc2)C(=O)c2[nH]c(-c3cccnc3)nc21` gave an IC50 of 21 µM.

Consider `O=C1C(Cl)=C(Nc2ccc(F)c(F)c2)C(=O)c2[nH]cnc21`, for which 1.1 µM corresponded to half-maximal inhibition (IC50). In turn, `Cc1nc2c([nH]1)C(=O)/C(=N/c1ccc(Cl)cc1Cl)C(Cl)=C2O` registered an IC50 of 0.8 µM.

`O=C1C(Br)=C(Nc2ccc(C(F)(F)F)cc2)C(=O)c2[nH]cnc21`: the IC50 amounted to 3.1 µM. Regarding `Cc1nc2c([nH]1)C(=O)/C(=N/c1cccc(Cl)c1Cl)C(Cl)=C2O`, the IC50 came out at 0.6 µM. Against the preceding compound, the IC50 is about 5.2-fold lower.

For the compound `Cc1nc2c([nH]1)C(=O)/C(=N/c1ccc(C(F)(F)F)cc1)C(Cl)=C2O`, the IC50 was determined as 0.6 µM. In turn, `Cc1cccc(NC2=C(Cl)C(=O)c3nc(-c4ccncc4)[nH]c3C2=O)c1` came in with an IC50 of 60 µM. Compound `O=C1C=C(Nc2ccc(OC(F)(F)F)cc2)C(=O)c2[nH]c(-c3ccccn3)nc21` displayed an IC50 of 20 µM. On the same count and under the same terms, to `O=C1C(Cl)=C(Nc2cccc(Cl)c2)C(=O)c2[nH]c(-c3ccccn3)nc21` belongs 3.5 µM. In the case of `Cc1ccc(NC2=C(Cl)C(=O)c3nc(-c4cccnc4)[nH]c3C2=O)cc1`, the half-maximal inhibitory concentration (IC50) is 45 µM and the pIC50 amounted to 4.35. As to `O=C1C(Cl)=C(Nc2cccc(F)c2)C(=O)c2[nH]c(-c3ccncc3)nc21`, half-maximal inhibition (IC50) was put at 19 µM. Turning to `O=C1C(Cl)=C(Nc2cccc(Br)c2)C(=O)c2[nH]c(-c3ccncc3)nc21`, the IC50 was 20 µM and the pIC50 worked out at 4.7. Turning to `CCOc1ccc(NC2=C(Cl)C(=O)c3nc(-c4cccnc4)[nH]c3C2=O)cc1`, the IC50 was 42 µM. As to `O=C1C(Cl)=C(Nc2ccc(OC(F)(F)F)cc2)C(=O)c2nc(-c3ccccn3)c(-c3ccccn3)nc21`, half-maximal inhibition (IC50) required 1 µM. The compound `O=C1C(Cl)=C(Nc2ccc(F)cc2F)C(=O)c2[nH]cnc21` came in with an IC50 of 2.7 µM. With `Cc1nc2c(nc1C)C(=O)C(Nc1ccc(F)cc1)=CC2=O`, half-maximal inhibition (IC50) was put at 3.1 µM and the pIC50 worked out at 5.51.

In turn, `Cc1nc2c(nc1C)C(=O)C(Nc1ccc(Cl)cc1)=CC2=O` gave an IC50 of 3.3 µM. The compound `Cc1nc2c(nc1C)C(=O)C(Nc1ccc(Br)cc1)=CC2=O` showed an IC50 of 1.1 µM. `O=C1C(Cl)=C(Nc2ccc(Br)cc2)C(=O)c2[nH]cnc21` displayed an IC50 of 2 µM. The compound `O=C1C(Cl)=C(Nc2ccc(Cl)cc2)C(=O)c2nc(-c3ccccn3)c(-c3ccccn3)nc21` returned an IC50 of 1.5 µM and a pIC50 of 5.82. As to `O=C1C(Cl)=C(Nc2ccc(O)cc2)C(=O)c2nc(-c3ccccn3)c(-c3ccccn3)nc21`, the IC50 is 5.5 µM and the pIC50 came out at 5.26. The compound `Cc1nc2c([nH]1)C(=O)C(Nc1ccc(OC(F)(F)F)cc1)=C(Cl)C2=O` gave a 50% inhibitory concentration (IC50) of 3 µM. In turn, `O=C1C(Cl)=C(Nc2cc(F)c(F)c(F)c2)C(=O)c2nc(-c3ccccn3)c(-c3ccccn3)nc21` registered an IC50 of 1.2 µM. Against the preceding compound, the IC50 is about 2.5-fold lower. `N#Cc1ccc(NC2=C(Cl)C(=O)c3nc[nH]c3C2=O)cc1` gave an IC50 of 2.7 µM. Regarding `Cc1nc2c(nc1C)C(=O)C(Nc1cc(F)cc(F)c1)=CC2=O`, the IC50 amounted to 4.5 µM. This IC50 is about 1.7-fold higher than that of the compound before. Still for that read-out and setting: to `O=C1C(Cl)=C(Nc2ccccc2)C(=O)c2nc(-c3ccccn3)c(-c3ccccn3)nc21` belongs 3.1 µM; to `Cc1nc2c(nc1C)C(=O)C(Nc1ccc(Cl)c(Cl)c1)=CC2=O`, 3.8 µM.

In turn, `O=C1C(Cl)=C(Nc2ccc(F)cc2)C(=O)c2nc(-c3ccccn3)c(-c3ccccn3)nc21` yielded an IC50 of 1 µM. With `O=C1C(Br)=C(Nc2cccc(Br)c2)C(=O)c2[nH]cnc21`, the half-inhibitory concentration (IC50) came to 5.3 µM. Against the preceding compound, the IC50 is about 5.3-fold higher. Consider `O=C1C(Cl)=C(Nc2ccc(OC(F)(F)F)cc2)C(=O)c2[nH]cnc21`, for which the IC50 is 2.5 µM. Regarding `O=C1C(Cl)=C(Nc2cccc(Br)c2)C(=O)c2[nH]c(-c3ccccn3)nc21`, inhibition was half-maximal at 20 µM (IC50). Compared with the last compound, the IC50 is about 8-fold higher. With `CCOc1ccc(NC2=C(Cl)C(=O)c3nc(-c4ccncc4)[nH]c3C2=O)cc1`, the half-inhibitory concentration (IC50) turned out to be 75 µM. This IC50 lies about 3.8-fold higher than the previous one. In turn, `CCOc1ccc(NC2=CC(=O)c3nc(C)c(C)nc3C2=O)cc1` returned an IC50 of 1.5 µM.

With `O=C1C(Br)=C(Nc2cccc(C(F)(F)F)c2)C(=O)c2[nH]cnc21`, the IC50 worked out at 3 µM. This IC50 lies about 2-fold higher than the previous one. Take `CCc1ccc(NC2=C(Cl)C(=O)c3nc(C)[nH]c3C2=O)cc1`: the IC50 turned out to be 3 µM and the pIC50 was 5.52. `O=C1C(Cl)=C(Nc2ccccc2F)C(=O)c2[nH]cnc21` returned an IC50 of 1.7 µM and a pIC50 of 5.77. `O=C1C(Cl)=C(Nc2cccc(Cl)c2)C(=O)c2[nH]c(-c3ccncc3)nc21` registered an IC50 of 31 µM. The compound `O=C1C(Cl)=C(Nc2ccc(Cl)c(Cl)c2)C(=O)c2[nH]c(-c3ccncc3)nc21` yielded an IC50 of 13 µM. `O=C1C(Cl)=C(Nc2ccc(Cl)c(Cl)c2)C(=O)c2nc(-c3ccccn3)c(-c3ccccn3)nc21` showed an IC50 of 1 µM. As to `O=C1C(Cl)=C(Nc2ccc(Cl)c(F)c2)C(=O)c2[nH]c(-c3ccncc3)nc21`, the IC50 worked out at 25 µM and the pIC50 turned out to be 4.6. `COc1ccc(NC2=C(Cl)C(=O)c3nc(-c4ccccn4)c(-c4ccccn4)nc3C2=O)cc1` displayed an IC50 of 3.5 µM and a pIC50 of 5.46. In turn, `O=C1C(Br)=C(Nc2cccc(Cl)c2)C(=O)c2[nH]cnc21` returned an IC50 of 3 µM.

Compound `O=C1C(Cl)=C(Nc2ccc(Br)cc2)C(=O)c2[nH]c(-c3ccncc3)nc21` had an IC50 of 60 µM. Against the preceding compound, the IC50 is about 20-fold higher. Compound `O=C1C(Cl)=C(Nc2ccc(Cl)cc2)C(=O)c2[nH]c(-c3cccnc3)nc21` came in with an IC50 of 20 µM.

As for `O=C1C(Cl)=C(Nc2ccc(Br)cc2)C(=O)c2[nH]c(-c3ccccn3)nc21`, half-maximal inhibition (IC50) was put at 6.5 µM. Compared with the last compound, the IC50 is about 3.1-fold lower. In turn, `O=C1C(Cl)=C(Nc2ccc(Cl)cc2)C(=O)c2[nH]c(-c3ccccn3)nc21` yielded an IC50 of 12 µM. On to `CCOc1ccc(NC2=CC(=O)c3nc(-c4ccccn4)[nH]c3C2=O)cc1`, for which the IC50 worked out at 6.5 µM.
